Square brackets hold non-standard residues; d marks the D form. Peptide text beside a SMILES is read from it. hArg = N=C(N)NCCCC[C@H](N)C(=O)O
How the values were obtained:
[1] = Ratio of drug level in liver to plasma in monkey at 30 mg/kg, po; type: ADME, organism-based, Macaca mulatta; details: rhesus monkey, liver and plasma
[2] = molecular target: T1, Proprotein convertase subtilisin/kexin type 9 (Homo sapiens, UniProt Q8NBP7); experiment: Activation of PCSK9 (unknown origin) expressed in human HepG2 cells assessed as decrease in LDL uptake at 25 uM; type: cell-based; design: scale not given: the % may be the effect or the level left; details: hepg2, 25 µM
[3] = molecular target: T1, Proprotein convertase subtilisin/kexin type 9; experiment: Inhibition of PCSK9 (unknown origin) expressed in human HepG2 cells assessed as increase in LDL uptake at 100 uM; type: cell-based; design: scale not given: the % may be the effect or the level left
[4] = molecular target: T1, Proprotein convertase subtilisin/kexin type 9; experiment: Inhibition of PCSK9 (unknown origin) at 1.25 uM
[5] = molecular target: T1, Proprotein convertase subtilisin/kexin type 9; experiment: Inhibition of PCSK9 in human HepG2 cells assessed as increase in uptake of fluorescent Dil-LDL at 0.37 uM relative to control; type: cell-based
[6] = molecular target: T1, Proprotein convertase subtilisin/kexin type 9; experiment: Inhibition of PCSK9 in human HepG2 cells assessed as increase in uptake of fluorescent Dil-LDL at 1.5 uM relative to control; type: cell-based
Mus musculus = experiment: Reduction in plasma total cholesterol level in C57BL/6 mouse at 4 mg/kg, sc administered once daily for 2 weeks with high fat diet by enzymatic method relative to untreated control; type: functional; design: scale not given: the % may be the effect or the level left
[7] = molecular target: T1, Proprotein convertase subtilisin/kexin type 9; experiment: Inhibition of PCSK9 in human HepG2 cells assessed as increase in LDLR expression levels at 1.6 uM relative to control; type: cell-based
HepG2 = experiment: Inhibition of PCSK9 production in human HepG2 cells after 24 hrs by ELISA; type: functional, cell-based; details: HepG2, 24 h
HeLa = experiment: Inhibition of PCSK9 expression in human HeLa cells after overnight incubation by ELISA; type: functional, cell-based
[8] = molecular target: T1, Proprotein convertase subtilisin/kexin type 9; experiment: Inhibition of PCSK9 in human HuH7 cells assessed as increase in cell surface LDLR expression level at 100 uM by FACS analysis relative to control; type: cell-based; design: scale not given: the % may be the effect or the level left
[9] = molecular target: T1, Proprotein convertase subtilisin/kexin type 9; experiment: Inhibition of PCSK9 in human HuH7 cells assessed as increase in LDL uptake by FACS analysis; type: cell-based; design: scale not given: the % may be the effect or the level left
[10] = molecular target: T1, Proprotein convertase subtilisin/kexin type 9; experiment: Inhibition of recombinant PCSK9 (unknown origin) expressed in human HepG2 cells assessed as increase in LDL uptake at 1.25 uM after 16 hrs by fluorescence assay; type: cell-based; design: scale not given: the % may be the effect or the level left
Hamster [11] = experiment: In vivo inhibition of PCSK9 in dietary hyperlipidemia hamster model assessed as reduction in blood LDL-c level at 0.01 mg/kg, po administered daily for 7 days; type: functional; details: Cricetinae, 168 h
Hamster [12] = experiment: In vivo inhibition of PCSK9 in dietary hyperlipidemia hamster model assessed as reduction in blood LDL-c level at 0.04 mg/kg, po administered daily for 7 days; type: functional; details: Cricetinae, 168 h
[13] = molecular target: T1, Proprotein convertase subtilisin/kexin type 9; experiment: Inhibition of binding of full-length recombinant human PCSK9 (M1 to Q692 residues) expressed in HEK293 cells to full-length LDLR (A1 to A699 residues) by SPR analysis
[14] = molecular target: T1, Proprotein convertase subtilisin/kexin type 9; experiment: Inhibition of PCSK9 (unknown origin) expressed in human HepG2 cells assessed as increase in LDL uptake at 0.5 uM; type: cell-based; design: scale not given: the % may be the effect or the level left
[15] = molecular target: T1, Proprotein convertase subtilisin/kexin type 9; experiment: Inhibition of PCSK9 in human HepG2 cells assessed as increase in LDL receptor levels at 200 uM after 18 to 24 hrs by Western blot analysis relative to control; type: cell-based
[16] = molecular target: T1, Proprotein convertase subtilisin/kexin type 9; experiment: Inhibition of recombinant PCSK9 (unknown origin) expressed in human HepG2 cells assessed as increase in LDLR expression levels relative to control; type: cell-based; design: scale not given: the % may be the effect or the level left
[17] = molecular target: T1, Proprotein convertase subtilisin/kexin type 9; experiment: Inhibition of recombinant PCSK9 (unknown origin) expressed in human HepG2 cells assessed as increase in LDL uptake at 10 uM after 16 hrs by fluorescence assay; type: cell-based; design: scale not given: the % may be the effect or the level left
[18] = molecular target: T1, Proprotein convertase subtilisin/kexin type 9; experiment: Inhibition of recombinant PCSK9 (unknown origin) expressed in human HepG2 cells assessed as increase in LDL uptake at 0.31 uM after 16 hrs by fluorescence assay; type: cell-based; design: scale not given: the % may be the effect or the level left
Rattus norvegicus [19] = experiment: In vivo inhibition of PCSK9 in rat plasma assessed as decrease in total plasma cholesterol level at 50 mg/kg, po administered daily for 14 days; type: functional; details: 336 h
Rattus norvegicus [20] = experiment: Reduction of circulating PCSK9 level in rat plasma at 50 mg/kg, po administered daily for 14 days; type: functional; details: 336 h
Rattus norvegicus [21] = experiment: In vivo inhibition of PCSK9 in rat plasma assessed as decrease in LDL-c level at 50 mg/kg, po administered daily for 14 days; type: functional; details: 336 h
[22] = molecular target: T1, Proprotein convertase subtilisin/kexin type 9; experiment: Inhibition of recombinant human C-terminal His8-tagged PCSK9 expressed in Chinese hamster ovary cells by TR-FRET assay; type: cell-based
[23] = molecular target: T1, Proprotein convertase subtilisin/kexin type 9; experiment: Binding affinity to recombinant human C-terminal His8-tagged PCSK9 expressed in Chinese hamster ovary cells by biolayer interferometry
Huh-7 = experiment: Inhibition of PCSK9 expression in human HuH7 cells after overnight incubation by ELISA; type: functional, cell-based

In the case of CCOC(=O)O[C@@H](C)n1nnnc1-c1c(-c2ccc(C(=O)N(c3ncccc3Cl)[C@@H]3CCCNC3)cc2F)cnn1C [PF-06815345], the Kp [1] is reported as 28.
In the case of O=C(N[C@H](CNc1nn[nH]n1)Cc1c[nH]c2ccccc12)[C@H](Cc1ccc(O)cc1)NC(=O)C12CC3CC(CC(C3)C1)C2, the Activity [2] is reported as 50%.
Molecule CC(=O)N[C@@H](CO)C(=O)N[C@@H](COP(=O)(O)O)C(=O)N1CCC(c2ccc(C(F)(F)F)cc2)CC1 has an Activity [3] of 105%.
With O=S(=O)(Nc1cccc2c1CCCC2)c1ccc(C2CCNCC2)cc1 the inhibition [4] was > 50%.
For Cc1cc(C(=O)C2=C(O)C(=O)N(CCCN3CCOCC3)C2c2ccncc2)ccc1OCc1ccccc1 (centres undefined), the fold change (FC) [5] was 6, the fold change (FC) [6] was 10 and the Activity (Mus musculus) was 32%. For the same molecule, the fold change (FC) [7] was 8.
Work on CCN(CC)C(=O)c1ccc(NC(=O)CSc2nnc(-c3cccs3)n2C2CC2)cc1 yielded a fold change (FC) [5] of 3 and a fold change (FC) [6] of 5.
FC(F)(F)c1ccc(-c2nc3c(ccc4cc[nH]c43)o2)cc1 gave an IC50 (HepG2) of 29.7 nM.
Cn1ncc(-c2ccc(C(=O)N(c3ncccc3Cl)[C@@H]3CCCNC3)cc2F)c1-c1nnn[nH]1 showed an IC50 (HeLa) of 3700 nM.
H-VTVRFW-OH showed an Activity [8] of 100% and an Activity [9] of 95%.
For Cc1cc2c(cc1-c1ccccc1F)C(=O)NCC2, the Activity [10] was 33%.
Molecule FC(F)(F)c1ccc(-c2nc3ccc(C(F)(F)F)c(Cl)c3o2)cc1 has an IC50 (HepG2) of 0.036 nM, an inhibition in vivo at 0.01 mg/kg (Hamster [11]) of 46% and an inhibition in vivo at 0.04 mg/kg (Hamster [12]) of 57%.
In the case of CC(C)c1c(C(=O)Nc2ccccc2)c(-c2ccccc2)c(-c2ccc(F)cc2)n1CC[C@@H](O)C[C@@H](O)CC(=O)O [ATORVASTATIN], the Activity (Mus musculus) is reported as 27%.
With Cn1cncc1-c1ncc(-c2ncc(-c3ncc(-c4ccccc4)n3C)n2C)n1C the IC50 [13] was 11200 nM.
For c1ccc2c(c1)NC1CNCCC21 (centres undefined), the Activity [14] was 60%.
Molecule Cc1ccc(C(=O)Nc2ccc(S(=O)(=O)O)c3cc(S(=O)(=O)O)cc(S(=O)(=O)O)c23)cc1NC(=O)c1cccc(NC(=O)Nc2cccc(C(=O)Nc3cc(C(=O)Nc4ccc(S(=O)(=O)O)c5cc(S(=O)(=O)O)cc(S(=O)(=O)O)c45)ccc3C)c2)c1 has a fold change (FC) [15] of 15.
With Cc1cc2c(cc1-c1ccccc1F)CNCC2 the Activity [16] was 10%, the Activity [17] was > 100% and the Activity [18] was 50%.
With O=S(=O)(Nc1cccc2c1CCCC2)c1ccc(N2CCNCC2)cc1 the inhibition [4] was 66%.
For CC(=O)Nc1ccc2nc(-c3ccc(C(F)(F)F)cc3)oc2c1C(F)(F)F, the IC50 (HepG2) was 2.1 nM.
For O=C(c1ccc(-n2nnc3cccnc32)cc1)N(c1ncccc1Cl)[C@@H]1CCCNC1, the IC50 (HeLa) was 500 nM, the inhibition in vivo at 50 mg/kg (Rattus norvegicus [19]) was 30% and the inhibition in vivo at 50 mg/kg (Rattus norvegicus [20]) was 50%. For the same molecule, the inhibition in vivo at 50 mg/kg (Rattus norvegicus [21]) was 58%.
Work on CC[C@H](C)[C@H](NC(=O)[C@H](CCCCNC(=N)N)NC(=O)[C@@H](NC(=O)[C@H](CC(C)C)NC(=O)[C@H](CC(N)=O)NC(=O)[C@H](Cc1c[nH]c2ccccc12)NC(=O)CNC(=O)[C@@H]1CCCN1C(=O)[C@H](Cc1ccccc1)NC(=O)[C@H](CO)NC(=O)[C@H](CCC(=O)O)NC(=O)[C@@H](N)CCSC)C(C)C)C(=O)NCC(=O)N[C@@H](CC(C)C)C(=O)N[C@@H](CC(C)C)C(=O)N[C@@H](CCCNC(=N)N)C(=O)O (H-MESFPGWNLV[hArg]IGLLR-OH) yielded an IC50 [22] of 8300 nM.
CC(=O)N[C@H](C(=O)N[C@H](C(=O)N[C@@H](Cc1ccccc1)C(=O)N[C@H](C(=O)N[C@@H](CO)C(=O)N[C@@H](Cc1c[nH]c2ccccc12)C(=O)N[C@@H](CCC(=O)O)C(=O)N[C@@H](CCC(=O)O)C(=O)N[C@@H](Cc1ccc(O)cc1)C(=O)N[C@@H](CC(C)C)C(=O)N[C@@H](CC(=O)O)C(=O)N[C@@H](Cc1c[nH]c2ccccc12)C(=O)N[C@H](C(N)=O)C(C)C)[C@@H](C)O)C(C)C)[C@@H](C)O showed a Kd [23] of 700 nM.
Work on COc1ccc(CCC(=O)N(c2nccc3ccccc23)[C@@H]2CCCNC2)cc1 yielded an IC50 (Huh-7) of 2200 nM.

Reference: ChEMBL document CHEMBL4219125, “Small molecule modulators of PCSK9 - A literature and patent overview” (Bioorg Med Chem Lett, 2018)
